{"source": "paper PMC11879040", "about": "“Advancing systemic toxicity risk assessment: Evaluation of a NAM-based toolbox approach” (Toxicological Sciences, 2024)", "key": {"[1]": {"target": "T1, Constitutive androstane receptor CAR, NR1I3 (h) (Homo sapiens, UniProt Q14994)", "T1 sequence (Q14994 1-352)": "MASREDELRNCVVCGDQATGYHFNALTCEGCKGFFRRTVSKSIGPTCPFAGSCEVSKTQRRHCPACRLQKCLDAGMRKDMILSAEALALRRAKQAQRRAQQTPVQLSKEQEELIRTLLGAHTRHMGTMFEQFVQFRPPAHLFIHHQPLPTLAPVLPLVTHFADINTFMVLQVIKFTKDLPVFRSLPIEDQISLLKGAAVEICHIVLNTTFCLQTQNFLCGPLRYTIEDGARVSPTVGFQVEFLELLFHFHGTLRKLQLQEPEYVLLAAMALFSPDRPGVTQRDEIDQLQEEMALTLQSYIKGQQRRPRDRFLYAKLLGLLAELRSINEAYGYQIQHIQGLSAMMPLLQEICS", "type": "biochemical"}, "[2]": {"target": "Androgen receptor, AR (h) (Homo sapiens, UniProt P10275)", "sequence (P10275 whole entry)": "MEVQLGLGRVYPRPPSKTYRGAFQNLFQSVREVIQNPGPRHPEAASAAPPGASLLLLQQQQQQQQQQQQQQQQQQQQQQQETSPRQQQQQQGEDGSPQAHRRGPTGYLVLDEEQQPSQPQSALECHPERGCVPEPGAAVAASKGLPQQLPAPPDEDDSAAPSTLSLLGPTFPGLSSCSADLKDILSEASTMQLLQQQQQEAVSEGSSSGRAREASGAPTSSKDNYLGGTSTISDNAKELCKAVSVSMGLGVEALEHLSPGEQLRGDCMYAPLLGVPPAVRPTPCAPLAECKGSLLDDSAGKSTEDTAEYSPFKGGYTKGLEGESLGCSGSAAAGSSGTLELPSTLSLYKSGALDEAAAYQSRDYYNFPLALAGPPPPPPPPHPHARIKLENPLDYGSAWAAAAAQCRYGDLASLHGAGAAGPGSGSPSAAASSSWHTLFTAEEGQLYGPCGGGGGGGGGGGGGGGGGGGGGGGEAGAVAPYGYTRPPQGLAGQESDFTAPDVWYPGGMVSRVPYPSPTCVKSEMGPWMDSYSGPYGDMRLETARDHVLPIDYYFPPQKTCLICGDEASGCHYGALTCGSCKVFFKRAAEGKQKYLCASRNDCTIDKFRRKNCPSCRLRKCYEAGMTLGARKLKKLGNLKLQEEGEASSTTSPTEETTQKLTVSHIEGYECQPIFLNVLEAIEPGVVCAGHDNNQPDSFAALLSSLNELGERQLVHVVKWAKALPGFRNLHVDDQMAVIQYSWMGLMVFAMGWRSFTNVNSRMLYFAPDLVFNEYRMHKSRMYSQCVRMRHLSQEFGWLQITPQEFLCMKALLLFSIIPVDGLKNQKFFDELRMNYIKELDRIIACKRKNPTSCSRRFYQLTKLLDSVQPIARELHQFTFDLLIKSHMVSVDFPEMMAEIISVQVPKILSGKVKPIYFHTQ", "details": "IPP screening at 10 uM; control testosterone"}, "human": {"system": "human", "details": "human studies; ref [15-18]; cited from earlier work"}, "[3]": {"details": "at the given pH, single value or median, cited from earlier work"}, "[4]": {"details": "PBK level L2; taken or scaled from references (median where several); ref [6],[7],[10],[19]; cited from earlier work"}, "[5]": {"details": "ref [15-18]; cited from earlier work"}, "CYP2C19": {"system": "CYP2C19", "details": "PBK level L3, Intrinsic Liver Clearance, ref [12], cited from earlier work"}, "[6]": {"target": "T2, Retinoic Acid Receptor gamma, RARG (h) (Homo sapiens, UniProt P13631)", "T2 construct": "purchased Eurofins Cerep (SafetyScreen44-based IPP panel)", "T2 sequence (P13631 whole entry)": "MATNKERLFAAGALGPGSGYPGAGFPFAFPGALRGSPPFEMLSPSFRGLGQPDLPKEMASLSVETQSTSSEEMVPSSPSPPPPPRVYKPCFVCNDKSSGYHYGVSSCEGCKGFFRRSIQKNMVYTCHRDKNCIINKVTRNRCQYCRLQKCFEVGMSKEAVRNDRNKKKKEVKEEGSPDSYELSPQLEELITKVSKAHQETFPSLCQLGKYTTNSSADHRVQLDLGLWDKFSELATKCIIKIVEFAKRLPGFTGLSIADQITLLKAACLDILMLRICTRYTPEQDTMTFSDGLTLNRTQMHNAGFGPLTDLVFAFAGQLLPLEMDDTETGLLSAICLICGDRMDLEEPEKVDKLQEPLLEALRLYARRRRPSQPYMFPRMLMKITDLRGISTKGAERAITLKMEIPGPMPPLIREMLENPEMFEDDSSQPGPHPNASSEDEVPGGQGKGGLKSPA", "test": "IPP RARG binding (assay unavailable by end of study)", "details": "10 uM; ligand/control 9-cis-Retinoic acid; ** assay was unavailable by the end of the study"}, "[7]": {"target": "T3, Estrogen receptor beta, ESR2 (h) (Homo sapiens, UniProt Q92731)", "T3 construct": "purchased Eurofins Cerep (SafetyScreen44-based IPP panel)", "T3 sequence (Q92731 whole entry)": "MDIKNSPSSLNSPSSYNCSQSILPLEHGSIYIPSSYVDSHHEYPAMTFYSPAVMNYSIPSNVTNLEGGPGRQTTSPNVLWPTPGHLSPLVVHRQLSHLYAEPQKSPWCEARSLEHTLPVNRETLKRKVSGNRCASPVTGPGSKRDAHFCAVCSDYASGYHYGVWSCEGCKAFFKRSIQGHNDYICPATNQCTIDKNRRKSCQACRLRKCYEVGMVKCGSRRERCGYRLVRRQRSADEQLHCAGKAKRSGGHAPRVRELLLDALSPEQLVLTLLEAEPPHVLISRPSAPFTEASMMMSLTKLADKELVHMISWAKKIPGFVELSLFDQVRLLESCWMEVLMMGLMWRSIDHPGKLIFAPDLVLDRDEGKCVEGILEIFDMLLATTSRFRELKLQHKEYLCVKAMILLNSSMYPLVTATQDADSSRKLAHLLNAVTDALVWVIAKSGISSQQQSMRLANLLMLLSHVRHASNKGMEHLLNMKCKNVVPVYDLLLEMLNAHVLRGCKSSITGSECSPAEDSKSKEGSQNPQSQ", "test": "IPP ESR2 coactivator recruitment (agonist)", "type": "biochemical", "details": "100 uM, estriol, * denotes assay interference (2-Amino-6-chloro-4-nitrophenol, HC Red 3)"}, "[8]": {"target": "T3, Estrogen receptor beta, ESR2 (h)", "test": "IPP ESR2 coactivator recruitment (antagonist)", "type": "biochemical", "details": "100 uM, estriol, * denotes assay interference (2-Amino-6-chloro-4-nitrophenol, HC Red 3)"}, "[9]": {"test": "PBK model plasma Cmax estimate (Gastroplus 9.8; levels L1, L2, L3)", "parameters": "species or system human", "details": "therapeutic uses"}, "[10]": {"test": "intestinal absorption (PBK input)", "type": "in vitro ADME", "details": "levels L2/L3, converted from [38]"}, "[11]": {"details": "PBK input, levels L2/L3; ref [4]; cited from earlier work"}, "[12]": {"target": "T4, Vitamin D3 receptor, VDR (h) (Homo sapiens, UniProt P11473)", "T4 sequence (P11473 whole entry)": "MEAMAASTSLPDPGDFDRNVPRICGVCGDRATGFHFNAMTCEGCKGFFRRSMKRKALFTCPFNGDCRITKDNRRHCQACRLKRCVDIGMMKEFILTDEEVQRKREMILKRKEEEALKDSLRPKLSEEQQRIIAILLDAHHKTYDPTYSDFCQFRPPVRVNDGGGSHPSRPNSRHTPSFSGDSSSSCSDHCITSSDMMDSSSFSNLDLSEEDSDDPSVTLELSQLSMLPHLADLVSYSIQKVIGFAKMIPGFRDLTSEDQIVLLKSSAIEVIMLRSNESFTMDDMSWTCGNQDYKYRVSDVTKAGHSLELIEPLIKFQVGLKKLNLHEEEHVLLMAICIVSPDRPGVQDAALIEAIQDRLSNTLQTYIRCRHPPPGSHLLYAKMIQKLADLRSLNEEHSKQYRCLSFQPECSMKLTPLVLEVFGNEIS", "type": "biochemical", "details": "10 uM; agonist; calcitriol for control"}, "[13]": {"target": "T4, Vitamin D3 receptor, VDR (h)", "type": "biochemical", "details": "10 uM; antagonist; ligand calcitriol"}}, "note": "Where two headings read alike, the source gives them in different places."}
{"molecule": "CCOP(=S)(OCC)Oc1nc(Cl)c(Cl)cc1Cl", "note": "[Chlorpyrifos, O,O-Diethyl O-(3,5,6-trichloropyridin-2-yl) phosphorothioate]", "values": [{"measurement": "IPP screening %, Coactivator recruitment", "setting": "[1]", "result": -5.1, "unit": "%"}, {"measurement": "Specific binding", "setting": "[2]", "result": 5.8, "unit": "%"}, {"measurement": "NOAEL", "setting": "human", "result": 0.1, "unit": "mg/kg bw/day"}, {"measurement": "Aqueous Solubility", "setting": "[3]; PBK level L2, ref [1],[4],[5],[10],[11],[17],[26]", "result": 1.26, "unit": "µg/mL"}, {"measurement": "Aqueous Solubility", "setting": "[3]; PBK level L3, ref [4],[5],[10],[11]", "result": 1.26, "unit": "µg/mL"}, {"measurement": "Intrinsic Liver Clearance", "setting": "[4]", "result": 131.95, "unit": "L/h"}, {"measurement": "oral reference dose", "setting": "[5]", "result": 0.01, "unit": "mg/kg bw/day"}, {"measurement": "Vmax CYP2C19 (TCP)", "setting": "CYP2C19", "result": 2296, "unit": "uL/min/mol CYP"}, {"measurement": "Km", "setting": "CYP2C19; read-out: km CYP2C19 (TCP)", "result": 1.09, "unit": "µM"}]}
{"molecule": "CC(C)(C)c1ccc(CCOc2ncnc3ccccc23)cc1", "note": "[Fenazaquin, 4-[2-(4-tert-Butylphenyl)ethoxy]quinazoline]", "values": [{"measurement": "IPP screening %, Specific binding", "setting": "[6]", "result": 35.0, "unit": "%"}]}
{"molecule": "CC1(C)O[C@@H]2[C@@H](CO[C@@]3(COS(N)(=O)=O)OC(C)(C)O[C@@H]23)O1", "note": "[Topiramate, [(3aS,5aR,8aR,8bS)-2,2,7,7-Tetramethyltetrahydro-2H,3aH,7H-bis[1,3]dioxolo[4,5-b:4',5'-d]pyran-3a-yl]methyl sulfamate (non-preferred name)]", "values": [{"measurement": "IPP screening %, Coactivator recruitment", "setting": "[7]", "result": -2.0, "unit": "%"}, {"measurement": "IPP screening %, Coactivator recruitment", "setting": "[8]", "result": -10.0, "unit": "%"}, {"measurement": "underprediction of the L3 result at L2 (Cmax)", "setting": "[9]", "result": "≥ 5", "unit": "fold"}, {"measurement": "Peff", "setting": "[10]", "result": 3.75, "unit": "cm/s x E-04"}, {"measurement": "Fup", "setting": "[11]", "result": 79.5, "unit": "%"}]}
{"molecule": "mixture of 2- and 3-tert-butyl-4-methoxyphenol [Butylated Hydroxyanisole]", "values": [{"measurement": "IPP screening %, Coactivator recruitment", "setting": "[12]", "result": -0.1, "unit": "%"}, {"measurement": "IPP screening %, Coactivator recruitment", "setting": "[13]", "result": 3.0, "unit": "%"}]}
